From US7135466B2 (Kirin Beer Kabushiki Kaisha, priority 1999, dated 2006) come the findings set out here.

In one assay the target is T1, c-kit (Homo sapiens, UniProt P10721).
T1 construct: MO7e (human megakaryocytic leukemia cell line) which had been arrested for 20 hr; endogenous in cells; host or cells: MO7e human megakaryocytic leukemia cell line
Kind of assay: Inhibitory activity against c-kit autophosphorylation (MO7e cells, h-SCF). The note with it: MO7e cells, h-SCF 50 ng/ml; read-out: c-kit IC50. In kind it is cell-based. The method in brief: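 Ligand-induced c-kit tyrosine phosphorylation is measured in MO7e cells that were quiesced 20 hr and preincubated with compound for 1 hr prior to a 5 min pulse of 50 ng/ml human SCF. Phospho-c-kit is detected by anti-phosphotyrosine capture ELISA, A450.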

The next assay has as its target T2, PDGF-Ra (Homo sapiens, UniProt P16234).
T2 construct: host or cells: G-292 human osteosarcoma cells
Kind of assay: Inhibitory activity against PDGF-Ra phosphorylation by PDGF-AA stimulation using G292. In kind it is cell-based. Particulars: for IC50: Pharmacological Test Example 1, > means inhibition at indicated concentration not more than 50%, < and << not less than 50%, read-out: PDGF (E) IC50. An outline of the steps: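 Phosphorylated PDGF-Ra was measured colorimetrically (450 nm) after tyrosine-phosphorylated proteins from G-292 lysates were bound to PY-20-coated wells and detected with anti-PDGF-Ra antibody. Compound preincubation lasted 1 hr, followed by 50 ng/ml PDGF-AA for 5 min.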

Bounds are passed on as bounds.

T2 sequence (P16234 24-1089): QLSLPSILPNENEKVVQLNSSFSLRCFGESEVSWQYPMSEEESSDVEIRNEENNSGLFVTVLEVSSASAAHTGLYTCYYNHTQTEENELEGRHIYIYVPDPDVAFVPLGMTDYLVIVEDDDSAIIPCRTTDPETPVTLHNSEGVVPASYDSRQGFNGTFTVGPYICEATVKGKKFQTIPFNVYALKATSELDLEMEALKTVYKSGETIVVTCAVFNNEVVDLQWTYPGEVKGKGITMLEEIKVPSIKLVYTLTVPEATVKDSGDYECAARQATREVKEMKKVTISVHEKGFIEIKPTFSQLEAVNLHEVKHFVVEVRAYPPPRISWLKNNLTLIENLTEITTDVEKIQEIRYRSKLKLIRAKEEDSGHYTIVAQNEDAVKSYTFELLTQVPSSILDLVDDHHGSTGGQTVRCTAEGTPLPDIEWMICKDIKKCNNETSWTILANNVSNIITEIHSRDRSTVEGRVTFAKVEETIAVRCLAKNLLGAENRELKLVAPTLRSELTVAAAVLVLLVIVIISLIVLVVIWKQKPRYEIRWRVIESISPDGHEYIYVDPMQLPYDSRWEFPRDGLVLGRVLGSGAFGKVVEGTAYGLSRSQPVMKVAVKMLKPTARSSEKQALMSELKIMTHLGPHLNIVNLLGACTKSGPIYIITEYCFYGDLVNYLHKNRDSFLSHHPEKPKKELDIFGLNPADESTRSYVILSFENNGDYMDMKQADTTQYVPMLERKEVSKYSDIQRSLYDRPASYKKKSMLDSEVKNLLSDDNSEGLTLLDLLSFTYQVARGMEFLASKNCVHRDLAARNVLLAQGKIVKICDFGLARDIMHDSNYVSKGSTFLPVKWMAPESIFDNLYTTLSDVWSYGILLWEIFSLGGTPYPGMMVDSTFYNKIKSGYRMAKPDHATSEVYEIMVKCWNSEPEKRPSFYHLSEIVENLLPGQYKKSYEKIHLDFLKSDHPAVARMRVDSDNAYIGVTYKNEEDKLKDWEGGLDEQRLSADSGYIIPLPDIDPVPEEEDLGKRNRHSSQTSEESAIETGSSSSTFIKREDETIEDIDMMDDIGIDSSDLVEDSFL
T1 sequence (P10721 26-976): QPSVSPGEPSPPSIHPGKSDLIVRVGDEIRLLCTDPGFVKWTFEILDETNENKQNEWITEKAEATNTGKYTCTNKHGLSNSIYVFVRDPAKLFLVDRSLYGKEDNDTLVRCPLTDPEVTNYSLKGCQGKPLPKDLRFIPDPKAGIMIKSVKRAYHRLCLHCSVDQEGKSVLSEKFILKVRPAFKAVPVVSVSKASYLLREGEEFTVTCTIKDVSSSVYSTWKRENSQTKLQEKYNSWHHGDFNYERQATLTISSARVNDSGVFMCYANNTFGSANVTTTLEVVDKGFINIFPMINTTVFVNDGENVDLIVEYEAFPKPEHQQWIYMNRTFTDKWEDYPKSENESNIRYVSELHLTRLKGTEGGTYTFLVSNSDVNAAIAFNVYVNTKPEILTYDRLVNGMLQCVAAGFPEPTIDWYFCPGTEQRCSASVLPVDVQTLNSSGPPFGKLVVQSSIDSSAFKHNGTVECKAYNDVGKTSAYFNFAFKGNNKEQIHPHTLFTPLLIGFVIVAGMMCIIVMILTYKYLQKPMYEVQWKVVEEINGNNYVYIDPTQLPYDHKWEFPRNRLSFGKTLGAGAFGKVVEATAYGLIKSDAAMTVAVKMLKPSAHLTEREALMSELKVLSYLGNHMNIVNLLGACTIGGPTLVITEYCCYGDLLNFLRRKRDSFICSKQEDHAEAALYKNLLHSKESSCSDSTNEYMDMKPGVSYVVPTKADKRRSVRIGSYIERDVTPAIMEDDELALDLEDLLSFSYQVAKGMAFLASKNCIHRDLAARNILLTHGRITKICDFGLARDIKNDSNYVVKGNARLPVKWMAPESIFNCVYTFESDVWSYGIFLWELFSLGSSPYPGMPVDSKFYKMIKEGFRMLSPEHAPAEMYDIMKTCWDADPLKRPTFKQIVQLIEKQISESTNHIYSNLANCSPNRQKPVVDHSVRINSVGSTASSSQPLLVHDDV

The IC50 is the concentration that inhibits the measured activity by half. Consider `COc1cc2nccc(Oc3cc(C)c(NC(=O)OCCCOc4cccc(F)c4)cc3C)c2cc1OC` [Example 149, 3-(3-Fluorophenoxy)propyl N-{4-[(6,7-dimethoxy-4-quinolyl)oxy]-2,5-dimethylphenyl}carbamate], for which the figures for the IC50 at c-kit and on PDGF-Ra were 49 nM and 19 nM, respectively.

As for `COc1cc2ncnc(Oc3ccc(NC(=O)OCCCOc4cccc(F)c4)cc3)c2cc1OC` [Example 150, 3-(3-Fluorophenoxy)propyl N-{4-[(6,7-dimethoxy-4-quinazolinyl)oxy]phenyl}carbamate], the IC50 at c-kit was 38 nM; on PDGF-Ra, under 10 nM.

`COc1cc2ncnc(Oc3ccc(NC(=O)OCCCOc4cccc(F)c4)c(C)c3C)c2cc1OC` [Example 151, 3-(3-Fluorophenoxy)propyl N-{4-[(6,7-dimethoxy-4-quinazolinyl)oxy]-2,3-dimethylphenyl}carbamate]: the IC50 at c-kit was found to be 32 nM; at PDGF-Ra it was 12 nM.

On to `COc1cc2nccc(Oc3ccc(NC(=O)OCCCOc4ccc(F)cc4)cc3)c2cc1OC` [Example 152, 3-(4-Fluorophenoxy)propyl N-{4-[(6,7-dimethoxy-4-quinolyl)oxy]phenyl}carbamate], for which the IC50 on c-kit was under 30 nM; at PDGF-Ra, under 10 nM.

In the case of `COc1cc2nccc(Oc3ccc(NC(=O)OCCCOc4ccc(F)cc4)c(C)c3C)c2cc1OC` [Example 153, 3-(4-Fluorophenoxy)propyl N-{4-[(6,7-dimethoxy-4-quinolyl)oxy]-2,3-dimethylphenyl}carbamate], the IC50 at c-kit is under 30 nM; at PDGF-Ra, under 10 nM.

For the compound `COc1cc2nccc(Oc3cc(C)c(NC(=O)OCCCOc4ccc(F)cc4)cc3C)c2cc1OC` [Example 154, 3-(4-Fluorophenoxy)propyl N-{4-[(6,7-dimethoxy-4-quinolyl)oxy]-2,5-dimethylphenyl}carbamate], the IC50 worked out at 61 nM at c-kit and 40 nM at PDGF-Ra.

As to `COc1cc2ncnc(Oc3ccc(NC(=O)OCCCOc4ccc(F)cc4)cc3)c2cc1OC` [Example 155, 3-(4-Fluorophenoxy)propyl N-{4-[(6,7-dimethoxy-4-quinazolinyl)oxy]phenyl}carbamate], the results for the IC50 on c-kit and on PDGF-Ra were 41 nM and 14 nM, respectively.

The inhibition is the relative decrease from the control value, in per cent. Consider `COc1cc2ncnc(Oc3ccc(NC(=O)OCCCOc4ccc(F)cc4)c(C)c3C)c2cc1OC` [Example 156, 3-(4-Fluorophenoxy)propyl N-{4-[(6,7-dimethoxy-4-quinazolinyl)oxy]-2,3-dimethylphenyl}-carbamate], for which the IC50 is 33 nM on c-kit and over 100 nM on PDGF-Ra. Besides, the inhibition at 0.1 µM at PDGF-Ra (G292, figure in parentheses in >100( ), at 100 nM, read-out: PDGF (E) inhibition (%) at 100 nM) worked out at 48%.

For `COc1cc2nccc(Oc3ccc(NC(=O)OCCCOc4ccccc4OC)cc3)c2cc1OC` [Example 157, 3-(2-Methoxyphenoxy)propyl N-{4-[(6,7-dimethoxy-4-quinolyl)oxy]phenyl}carbamate], the IC50 was 35 nM at c-kit and under 10 nM on PDGF-Ra.

Regarding `COc1cc2nccc(Oc3ccc(NC(=O)OCCCOc4ccccc4OC)c(C)c3C)c2cc1OC` [Example 158, 3-(2-Methoxyphenoxy)propyl N-{4-[(6,7-dimethoxy-4-quinolyl)oxy]-2,3-dimethylphenyl}carbamate], the IC50 on c-kit was 107 nM; on PDGF-Ra, 12 nM.

`COc1cc2nccc(Oc3cc(C)c(NC(=O)OCCCOc4ccccc4OC)cc3C)c2cc1OC` [Example 159, 3-(2-Methoxyphenoxy)propyl N-{4-[(6,7-dimethoxy-4-quinolyl)oxy]-2,5-dimethylphenyl}carbamate]: the IC50 on c-kit is 147 nM; at PDGF-Ra, 52 nM.

Turning to `COc1cc2ncnc(Oc3ccc(NC(=O)OCCCOc4ccccc4OC)cc3)c2cc1OC` [Example 160, 3-(2-Methoxyphenoxy)propyl N-{4-[(6,7-dimethoxy-4-quinazolinyl)oxy]phenyl}carbamate], the IC50 came to 52 nM on c-kit and 16 nM at PDGF-Ra.

Consider `COc1cccc(OCCCOC(=O)Nc2ccc(Oc3ccnc4cc(OC)c(OC)cc34)cc2)c1` [Example 161, 3-(3-Methoxyphenoxy)propyl N-{4-[(6,7-dimethoxy-4-quinolyl)oxy]phenyl}carbamate], for which the IC50 at c-kit is 178 nM; at PDGF-Ra it was under 10 nM.

Take `COc1cccc(OCCCOC(=O)Nc2ccc(Oc3ccnc4cc(OC)c(OC)cc34)c(C)c2C)c1` [Example 162, 3-(3-Methoxyphenoxy)propyl N-{4-[(6,7-dimethoxy-4-quinolyl)oxy]-2,3-dimethylphenyl}carbamate]: the IC50 stood at 162 nM at c-kit and 16 nM on PDGF-Ra.

For `COc1cccc(OCCCOC(=O)Nc2cc(C)c(Oc3ccnc4cc(OC)c(OC)cc34)cc2C)c1` [Example 163, 3-(3-Methoxyphenoxy)propyl N-{4-[(6,7-dimethoxy-4-quinolyl)oxy]-2,5-dimethylphenyl}carbamate], the IC50 at c-kit is 185 nM; on PDGF-Ra, under 10 nM.

For `COc1cccc(OCCCOC(=O)Nc2ccc(Oc3ncnc4cc(OC)c(OC)cc34)cc2)c1` [Example 164, 3-(3-Methoxyphenoxy)propyl N-{4-[(6,7-dimethoxy-4-quinazolinyl)oxy]phenyl}carbamate], the IC50 on c-kit was 50 nM; on PDGF-Ra, 12 nM.

With `COc1cc2nccc(Oc3ccc(NC(=O)OCCSc4cc(C)ccc4C)cc3)c2cc1OC` [Example 165, 2-[(2,5-dimethylphenyl)sulfanyl]ethyl N-{4-[(6,7-dimethoxy-4-quinolyl)oxy]phenyl}carbamate], the IC50 at c-kit came to 149 nM; on PDGF-Ra, 49 nM.

For `COc1cc2nccc(Oc3ccc(NC(=O)OCCSc4cc(C)ccc4C)c(C)c3C)c2cc1OC` [Example 166, 2-[(2,5-Dimethylphenyl)sulfanyl]ethyl N-{4-[(6,7-dimethoxy-4-quinolyl)oxy]-2,3-dimethylphenyl}carbamate], the figures for the IC50 at c-kit and on PDGF-Ra were 145 nM and 34 nM, respectively.

Consider `COc1cc2nccc(Oc3cc(C)c(NC(=O)OCCSc4cc(C)ccc4C)cc3C)c2cc1OC` [Example 167, 2-[(2,5-Dimethylphenyl)sulfanyl]ethyl N-{4-[(6,7-Dimethoxy-4-quinolyl)oxy]-2,5-dimethylphenyl}carbamate], for which the values for the IC50 at c-kit and at PDGF-Ra were 370 nM and 45 nM, respectively.

`COc1cc2ncnc(Oc3ccc(NC(=O)OCCSc4cc(C)ccc4C)cc3)c2cc1OC` [Example 168, 2-[(2,5-Dimethylphenyl)sulfanyl]ethyl N-{4-[(6,7-dimethoxy-4-quinazolinyl)oxy]phenyl}carbamate]: the IC50 at c-kit is 52 nM; at PDGF-Ra it was 15 nM.

In the case of `COc1cc2nccc(Oc3ccc(NC(=O)OCCCSc4cc(C)ccc4C)cc3)c2cc1OC` [Example 169, 3-[(2,5-Dimethylphenyl)sulfanyl)propyl N-{4-[(6,7-dimethoxy-4-quinolyl)oxy]phenyl}carbamate], the IC50 was 31 nM at c-kit and under 10 nM on PDGF-Ra.

Take `COc1cc2nccc(Oc3ccc(NC(=O)OCCCSc4cc(C)ccc4C)c(C)c3C)c2cc1OC` [Example 170, 3-[(2,5-Dimethylphenyl)sulfanyl]propyl N-{4-[(6,7-dimethoxy-4-quinolyl)oxy]-2,3-dimethylphenyl}carbamate]: the half-inhibitory concentration (IC50) at c-kit was 34 nM; at PDGF-Ra, under 10 nM.

As for `COc1cc2nccc(Oc3cc(C)c(NC(=O)OCCCSc4cc(C)ccc4C)cc3C)c2cc1OC` [Example 171, 3-[(2,5-Dimethylphenyl)sulfanyl]propyl N-{4-[(6,7-dimethoxy-4-quinolyl)oxy]-2,5-dimethylphenyl}carbamate], the figures for the IC50 at c-kit and on PDGF-Ra were 83 nM and 22 nM, respectively.
